In patent publication US5486516A, “Furopyrimidine derivatives” (DowElanco, priority 1993, dated 1996):

Experiments:
[1] = test system: Erysiphe graminis tritici (powdery mildew); assay: Plant pathology screen (Test 1), powdery mildew on wheat; conditions: Blumeria graminis, in Triticum aestivum, foliar, read-out: POWD MDEW control rating
Procedure: (§1) The test compounds were formulated for application by dissolving 50 mg of the compound into 1.25 ml of solvent. The solvent was prepared by mixing 50 ml of "Tween 20" (polyoxyethylene (20) sorbitan monolaurate emulsifier) with 475 ml of acetone and 475 ml of ethanol. The solvent/compound solution was diluted to 125 ml with deionized water. The resulting formulation contains 400 ppm test chemical. Lower concentrations were obtained by serial dilution with the solvent-surfactant mixture.
The formulated test compounds were applied by foliar spray.
(§2) The formulated technical compounds were sprayed on all foliar surfaces of the host plants (or cut berry) to past run-off. Single pots of each host plant were placed on raised, revolving pedestals in a fume hood. Test solutions were sprayed on all foliar surfaces. All treatments were allowed to dry and the plants were inoculated with the appropriate pathogens within 2-4 hours.
(§3) The effectiveness of test compounds in controlling disease was rated using the following scale.

[2] = test system: southern armyworm (Spodopetra eridania Cramer); assay: Mite/insect screen, Southern armyworm; type: in vivo; conditions: sprayed leaves; for mortality at 200 ppm / mortality at 400 ppm: Spodoptera eridania, read-out: SAW results (percent mortality); for mortality at 200 ppm: rate 200 ppm
In short: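 Compounds in acetone/alcohol with Toximul emulsifiers, diluted in water, sprayed to runoff on squash leaves at 10 psi and dried 1 h. Excised treated leaves fed to southern armyworm larvae in Petri dishes; percent mortality scored after standard exposure.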

[3] = test system: Botrytis cinerea (gray mold); assay: Plant pathology screen (Test 1), gray mold on grape berries; conditions: read-out: GRAY MOLD control rating
[4] = test system: Puccinia recondita tritici (leaf rust); assay: Plant pathology screen (Test 1), leaf rust on wheat; conditions: in Triticum aestivum, foliar, read-out: LEAF RUST control rating
[5] = test system: Twospotted spider mites (Tetranychus urticae Koch); assay: Mite/insect screen, twospotted spider mites; type: in vivo; conditions: sprayed leaves; for mortality at 200 ppm / mortality at 400 ppm: Tetranychus urticae, read-out: SM results (percent mortality); for mortality at 200 ppm: rate 200 ppm
In short: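 Squash cotyledons infested with mites were sprayed to runoff at 10 psi with compound in acetone/alcohol plus emulsifiers, diluted in water to the stated concentrations. Percent mortality and phytotoxicity were scored after standard exposure periods.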

[6] = test system: Southern corn rootworm (Diabrotica undecimpuctata howardi Barber); assay: Mite/insect screen, corn rootworm; type: in vivo; conditions: soil; for mortality at 12 ppm / mortality at 24 ppm: Diabrotica, read-out: CRW results (percent mortality); for mortality at 12 ppm: CRW rate 12.00 ppm
In short: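 Compound in acetone/alcohol with emulsifiers, diluted with water; 1 mL applied to 15 g dry sandy soil holding a presoaked corn seed. After 6–12 h drying, five 2-3 instar larvae added, held at 23° C; percent mortality and phytotoxicity scored after standard exposure periods.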

[7] = test system: Pseudoperonospora cubensis (downy mildew); assay: Plant pathology screen (Test 1), downy mildew on squash; conditions: foliar, read-out: DOWN MDEW control rating
Procedure: as §1
The formulated test compounds were applied by foliar spray. The following plant pathogens and their corresponding plants were employed.
as §2, §3

[8] = test system: melon aphids (Aphis gossvpii Glover); assay: Mite/insect screen, melon aphids; type: in vivo; conditions: sprayed leaves; for mortality at 200 ppm / mortality at 400 ppm: Aphis, read-out: MA results (percent mortality); for mortality at 200 ppm: rate 200 ppm
In short: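 Aphids established on squash cotyledons were sprayed to runoff with compound in acetone/alcohol with sulfonate/nonionic emulsifiers, diluted in water to test concentrations. Leaves dried 1 h. Percent mortality scored after standard exposure periods.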

[9] = test system: Pyricularia oryzae (rice blast); assay: whole plant or invertebrate; type: in vivo; conditions: foliar, read-out: RICE BLAST control rating

Row | SMILES | pest or weed control at 400 µg/mL [1] | mortality at 200 ppm [2] | mortality at 400 ppm ([2]; rate 400 ppm) | pest or weed control at 400 µg/mL [3] | pest or weed control at 400 µg/mL [4] | mortality at 200 ppm [5] | mortality at 400 ppm ([5]; rate 400 ppm) | mortality at 12 ppm [6] | mortality at 24 ppm ([6]; CRW rate 24.00 ppm) | pest or weed control at 400 µg/mL [7] | mortality at 200 ppm [8] | mortality at 400 ppm ([8]; rate 400 ppm) | pest or weed control at 400 µg/mL [9] | SAW results (percent mortality) ([2]; rate 400 ppm) | SM results (percent mortality) ([5]; rate 400 ppm) | CRW results (percent mortality) ([6]; CRW rate 24.00 ppm) | MA results (percent mortality) ([8]; rate 400 ppm)
1 | Cc1oc2ncnc(NCCc3ccc(OC(F)(F)C(F)F)cc3)c2c1C [Example 47, N-[2-[4-(1,1,2,2-tetrafluoroethoxy)phenyl]ethyl]-5,6-dimethylfuro[2,3-d]pyrimidin-4-amine] | 20 to 89% | 100% | 0% | 0 to 19% | 90 to 100% | 90% | 100% | 100% | 80% | 90 to 100% | 100% | 100% | 90 to 100% |  |  |  | 
2 | Cc1coc2ncnc(NCCc3ccccc3)c12 [Example 19, 5-methyl-N-(2-phenylethyl)furo[2,3-d]pyrimidin-4-amine] | 20 to 89% | 0% | 0% | 0 to 19% | 90 to 100% | 0% | 0% | 0% | 0% | 90 to 100% | 0% | 90% | 0 to 19% |  |  |  | 
3 | Cc1oc2ncn(CCc3cccc(C(F)(F)F)c3)c(=N)c2c1C [Example 81, 3-[2-[3-(trifluoromethyl)phenyl]ethyl]-5,6-dimethylfuro[2,3-d]pyrimidin-4(3H)-imine] | 20 to 89% |  | 0% | 0 to 19% | 90 to 100% |  | 0% |  | 0% | 90 to 100% |  | 0% | 90 to 100% | 0% | 0% | 0% | 0%
4 | Cc1coc2ncn(CCc3ccc4ccccc4c3)c(=N)c12 [Example 79, 5-methyl-3-[2-(2-naphthyl)ethyl]furo[2,3-d]pyrimidin-4(3H)-imine] | 0 to 19% |  | 0% | 0 to 19% | 20 to 89% |  | 0% |  | 0% | 90 to 100% |  | 0% | 20 to 89% |  |  |  | 
5 | Cc1oc2ncnc(OCCc3ccc4c(c3)OC(F)(F)O4)c2c1C [Example 70] | 0 to 19% |  | 0% | 0 to 19% | 0 to 19% |  | 0% |  | 0% | 0 to 19% |  | 0% | 0 to 19% |  |  |  | 
6 | Cc1oc2ncnc(OCCc3ccc(Oc4ccc(C(F)(F)F)cc4)cc3)c2c1C [Example 41, 5,6-dimethyl-4-[2-[4-[4-(trifluoromethyl)phenoxy]phenyl]ethoxy]furo[2,3-d]pyrimidine] | 90 to 100% | 0% | 0% | 0 to 19% | 90 to 100% | 0% | 100% | 0% | 60% | 90 to 100% | 0% | 100% | 20 to 89% |  |  |  | 
7 | Cc1cc2c(OCCc3ccc(-c4ccccc4)cc3)ncnc2o1 [Example 7, 4-[2-(1,1'-biphenyl)-4-ylethoxy]6-methylfuro[2,3-d]pyrimidine] | 0 to 19% | 0% | 0% | 0 to 19% | 0 to 19% | 30% | 0% | 0% | 0% | 20 to 89% | 100% | 0% | 20 to 89% |  |  |  | 
8 | COc1ccc(CCNc2ncnc3occ(C)c23)cc1OC [Example 27, N-[2-(3,4-dimethoxyphenyl)ethyl]-5-methylfuro[2,3-d]pyrimidin-4-amine] | 0 to 19% | 0% | 0% | 0 to 19% | 90 to 100% | 0% | 0% | 0% | 0% | 90 to 100% | 0% | 0% | 0 to 19% |  |  |  | 
9 | Cc1cc2c(NCCc3cccc(C(F)(F)F)c3)ncnc2o1 [Example 8, 6-methyl-N-[2-[3-(trifluoromethyl)phenyl]ethyl]furo[2,3-d]pyrimidin-4-amine] | 20 to 89% | 0% | 0% | 0 to 19% | 90 to 100% | 0% | 0% | 0% | 0% | 90 to 100% | 0% | 0% | 20 to 89% |  |  |  | 
10 | Cc1oc2ncnc(NCCc3ccccc3)c2c1C [Example 12, 5,6-dimethyl-N-(2-phenylethyl)furo[2,3-d]pyrimidin-4-amine] | 0 to 19% | 0% | 0% | 0 to 19% | 90 to 100% | 0% | 0% | 0% | 0% | 90 to 100% | 0% | 0% | 20 to 89% |  |  |  | 
11 | Cc1oc2ncnc(OCCc3ccc(C(F)(F)F)cc3)c2c1C [Example 54] | 90 to 100% | 0% | 40% | 0 to 19% | 90 to 100% | 100% | 60% | 0% | 0% | 0 to 19% | 100% | 40% | 90 to 100% |  |  |  | 
12 | Cc1cc2c(OCCc3ccc(C(F)(F)F)cc3)ncnc2o1 [Example 42, 6-methyl-4-[2-[4-(trifluoromethyl)phenyl]ethoxy]furo[2,3-d]pyrimidine] | 20 to 89% | 0% | 0% | 0 to 19% | 90 to 100% | 0% | 100% | 0% | 0% | 90 to 100% | 100% | 100% | 20 to 89% |  |  |  | 
13 | Cc1oc2ncnc(OCC(C)c3ccc(CC(C)C)cc3)c2c1C (centres unmarked) [Example 67, 4-[2-[4-(2,2-dimethylethyl)phenyl]-2-methylethoxy]5,6-dimethylfuro[2,3-d]pyrimidine] | 20 to 89% | 0% | 0% | 20 to 89% | 20 to 89% | 100% | 100% | 0% | 0% | 20 to 89% | 100% | 100% | 90 to 100% |  |  |  | 
14 | Cc1oc2ncnc(NCCc3ccc(OC(F)(F)F)cc3)c2c1C [Example 68, 5,6-dimethyl-N-[2-[4-(trifluoromethoxy)phenyl]ethyl]furo[2,3-d]pyrimidin-4-amine] | 20 to 89% |  | 100% | 0 to 19% | 20 to 89% |  | 30% |  | 0% | 90 to 100% |  | 90% | 90 to 100% |  |  |  | 
